{
  "source": "patent US4087534A",
  "about": "“N-haloalkylmio urazole pesticides” (priority 1974, dated 1978)",
  "system": "Penicillium Chrysogenom",
  "experiment": "Modified Agar plate method, fungicidal activity against Penicillium spores (number of colonies)",
  "assay_type": "cell-based",
  "settings": "Treatment II: 1 ml solution of Captan in water at 200 ppm",
  "data": [
    {"smiles": "O=C1C2CC=CCC2C(=O)N1SC(Cl)(Cl)Cl", "note": "(stereo not shown) [CAPTAN, Captan]", "values": [
      {"measurement": "inhibition (observation of number of colonies)", "value": "total inhibition"}
    ]}
  ]
}
